In general, melting point refers to the temperature of the solid-liquid transition.

`COc1ccc(Nc2nc(N)c(C(C)=O)s2)cc1` [Example 3, 1-{4-Amino-2-[(4-methoxyphenyl)amino]-1,3-thiazol-5-yl}ethanone]: the melting point is 180 °C (dec.).

As for `COc1ccc(CCC(=O)Nc2ncc([N+](=O)[O-])s2)cc1` [Example 5, 3-(4-Methoxyphenyl)-N-(5-nitro-1,3-thiazol-2-yl)propanamide], the melting point was 224 to 227 °C (dec.).

The molecule `COc1ccc(CCCC(=O)Nc2ncc([N+](=O)[O-])s2)cc1` [Example 6, 4-(4-Methoxyphenyl)-N-(5-nitro-1,3-thiazol-2-yl)butanamide] displayed a melting point of 176 to 177 °C.

For the origin of these results see patent publication US20050119321A1, “2-substituted-1,3-thiazole compounds” (priority 2002, published 2005).
